From patent US10934527B2, “Generation of lineage-restricted progenitor cells from differentiated cells” (The Regents of the University of California, priority 2011, dated 2021)
“Also recorded” adds a separate entry of the source.

Assays:
YFP+ myotubes = test: De-differentiation assay of lineage-marked YFP+ primary myotubes; assay type: cell-based, mice
Procedure: WT myoblasts or Tet-Oct4 (3×10^5) myoblasts upon 4-6 hour infection with 300 MOI of Ad-Cre virus were washed with growth medium twice to get rid of any residual virus and incubated for another 24 hours in growth medium at 37° C. in 5% CO2 incubator. These myoblasts were then lifted off from the plates by addition of 1×PBS, counted (3×10^4 cells/well) and co-cultured with 7×10^4 Lox-YFP myoblasts (obtained from B6.129X1-Gt(ROSA)26Sor^tm1(EYFP)Cos/J mice strain) per well in differentiation inducing medium DMEM (Cellgro)+2% horse serum+1% Penicillin/Streptomycin on 12 well (BD Falcon) on ECM (1:500) coated 12 well plates. […] The inhibitors were then withdrawn and cells were switched to growth medium containing bFGF (9 ng/ml). The treated cells were fed fresh growth medium and bFGF everyday over a period of time and the morphology of YFP expressing myotubes was routinely visualized by epifluorescence microscope using YFP filter and photographed using 10× and 20× objectives. For live Hoechst staining, 4 μM of Hoechst was added everyday to YFP labeled myotube cultures, incubated for 10 minutes at 37° C. in 5% CO2 incubator, washed off to remove unlabeled Hoechst and photographed.
The labeled YFP^+ myotubes per well in 4 day old Cre-Lox myotube cultures were determined to be ˜2600. After inhibitor treatment, ˜350 YFP^+ mononucleated cells were found in culture. […] Another method was based on the determination of Lox YFP myonuclei in labeled myotubes. […] Therefore, reprogramming efficiency calculated was the percent of YFP^+ mononucleated cells out of an estimated total number of Lox YFP myonuclei in YFP^+ myotubes and was determined ˜5.04% [(350/6940)×100] (see FIG. 11D).

primary myotubes = test: Apoptosis / cell death in treated primary myotubes; assay type: cell-based, mice
[1] = 96 hour old YFP+ myotubes treated daily for 2 days in DM (10 μM), then switched to GM

O.O.O.OO.OO.[K+].[OH-].[V].c1cnc2c(c1)ccc1cccnc12 [BpV, potassium bisperoxo(1,10-phenanthroline)oxovanadate]
de-differentiation frequency / reprogramming efficiency, method 1: percent of YFP+ mononucleated cells out of the total number of labeled YFP+ myotubes (YFP+ myotubes; [1]): ~1.18%
reprogramming efficiency, method 2: percent of YFP+ mononucleated cells out of estimated total number of Lox YFP myonuclei in YFP+ myotubes (YFP+ myotubes; [1]): ~0.4%
cell death / apoptosis of myotubes (primary myotubes; myotubes treated with BpV alone): cell death occurred; also recorded: did show apoptosis

COc1cccc2c1C(=O)c1c(O)c3c(c(O)c1C2=O)C[C@@](O)(C(=O)CO)C[C@@H]3O[C@H]1C[C@H](N)[C@H](O)[C@H](C)O1 [doxorubicin]
appearance of YFP+ mononucleated cells from Cre-Lox myotubes (YFP+ myotubes; 0.2 uM for 48 hours, alone or in combination with the apoptosis inhibitor, then growth media 72-96 hours): no YFP^+ mononucleated cells were observed

N-(2-Quinolyl)valyl-aspartyl-(2,6-difluorophenoxy)methyl ketone [Q-VD]
appearance of YFP+ mononucleated cells from YFP+ myotubes (YFP+ myotubes; treated in DM, then switched to GM): no YFP^+ mononucleated cells were observed
apoptosis by doxorubicin in Cre-Lox myotube cultures (primary myotubes; with 0.2 uM doxorubicin for 48 hours): reduced apoptosis
